Experimental data published in ChEMBL document CHEMBL1687815, “In vivo selection of a missense mutation in adeR and conversion of the novel blaOXA-164 gene into blaOXA-58 in carbapenem-resistant Acinetobacter baumannii isolates from a hospitalized patient” (2010).
Active and inactive are the calls of the source.

Experiments:
Acinetobacter baumannii [1] = assay: Antimicrobial activity against Acinetobacter baumannii isolate D expressing beta-lactamase OXA-164 isolated from tracheal secretion of patient by vitek 2 system
Acinetobacter baumannii [2] = assay: Antimicrobial activity against Acinetobacter baumannii isolate F expressing beta-lactamase OXA-164 isolated from tracheostoma of patient by vitek 2 system
Acinetobacter baumannii [3] = assay: Antimicrobial activity against Acinetobacter baumannii isolate I expressing beta-lactamase OXA-58 isolated from tracheal secretion of patient by vitek 2 system
Acinetobacter baumannii [4] = assay: Antimicrobial activity against Acinetobacter baumannii isolate A expressing beta-lactamase OXA-164 isolated from tracheal secretion of patient by vitek 2 system
Acinetobacter baumannii [5] = assay: Antimicrobial activity against Acinetobacter baumannii isolate K expressing beta-lactamase OXA-58 isolated from blood culture of patient by vitek 2 system
Acinetobacter baumannii [6] = assay: Antimicrobial activity against Acinetobacter baumannii isolate G expressing beta-lactamase OXA-58 isolated from tracheal secretion of patient by vitek 2 system
Acinetobacter baumannii [7] = assay: Antimicrobial activity against Acinetobacter baumannii isolate E expressing beta-lactamase OXA-164 isolated from tracheal secretion of patient by vitek 2 system
Acinetobacter baumannii [8] = assay: Antimicrobial activity against Acinetobacter baumannii isolate B expressing beta-lactamase OXA-164 isolated from tracheal secretion of patient by vitek 2 system
Acinetobacter baumannii [9] = assay: Antimicrobial activity against Acinetobacter baumannii isolate M expressing beta-lactamase OXA-58 isolated from tracheal secretion of patient by vitek 2 system
Acinetobacter baumannii [10] = assay: Antimicrobial activity against Acinetobacter baumannii isolate L expressing beta-lactamase OXA-58 isolated from tracheal secretion of patient by vitek 2 system
Acinetobacter baumannii [11] = assay: Antimicrobial activity against Acinetobacter baumannii isolate C expressing beta-lactamase OXA-164 isolated from tracheal secretion of patient by vitek 2 system
Acinetobacter baumannii [12] = assay: Antimicrobial activity against Acinetobacter baumannii isolate H expressing beta-lactamase OXA-58 isolated from tracheal secretion of patient by vitek 2 system
Acinetobacter baumannii [13] = assay: Antimicrobial activity against Acinetobacter baumannii isolate J expressing beta-lactamase OXA-58 isolated from bedsore by vitek 2 system
Acinetobacter baumannii [14] = assay: Antimicrobial activity against Acinetobacter baumannii isolate C expressing beta-lactamase OXA-164 isolated from tracheal secretion of patient by Etest
Acinetobacter baumannii [15] = assay: Antimicrobial activity against Acinetobacter baumannii isolate F expressing beta-lactamase OXA-164 isolated from tracheostoma of patient by Etest
Acinetobacter baumannii [16] = assay: Antimicrobial activity against Acinetobacter baumannii isolate J expressing beta-lactamase OXA-58 isolated from bedsore by Etest
Acinetobacter baumannii [17] = assay: Antimicrobial activity against Acinetobacter baumannii isolate L expressing beta-lactamase OXA-58 isolated from tracheal secretion of patient by Etest
Acinetobacter baumannii [18] = assay: Antimicrobial activity against Acinetobacter baumannii isolate A expressing beta-lactamase OXA-164 isolated from tracheal secretion of patient by Etest
Acinetobacter baumannii [19] = assay: Antimicrobial activity against Acinetobacter baumannii isolate K expressing beta-lactamase OXA-58 isolated from blood culture of patient by Etest
Acinetobacter baumannii [20] = assay: Antimicrobial activity against Acinetobacter baumannii isolate M expressing beta-lactamase OXA-58 isolated from tracheal secretion of patient by Etest
Acinetobacter baumannii [21] = assay: Antimicrobial activity against Acinetobacter baumannii isolate I expressing beta-lactamase OXA-58 isolated from tracheal secretion of patient by Etest
Acinetobacter baumannii [22] = assay: Antimicrobial activity against Acinetobacter baumannii isolate H expressing beta-lactamase OXA-58 isolated from tracheal secretion of patient by Etest
Acinetobacter baumannii [23] = assay: Antimicrobial activity against Acinetobacter baumannii isolate G expressing beta-lactamase OXA-58 isolated from tracheal secretion of patient by Etest
Acinetobacter baumannii [24] = assay: Antimicrobial activity against Acinetobacter baumannii isolate D expressing beta-lactamase OXA-164 isolated from tracheal secretion of patient by Etest
Acinetobacter baumannii [25] = assay: Antimicrobial activity against Acinetobacter baumannii isolate E expressing beta-lactamase OXA-164 isolated from tracheal secretion of patient by Etest
Acinetobacter baumannii [26] = assay: Antimicrobial activity against Acinetobacter baumannii isolate B expressing beta-lactamase OXA-164 isolated from tracheal secretion of patient by Etest

Measured: MIC

CC(C)(O/N=C(\C(=O)N[C@@H]1C(=O)N2C(C(=O)[O-])=C(C[n+]3ccccc3)CS[C@H]12)c1csc(N)n1)C(=O)O
inactive: Acinetobacter baumannii [1] | Acinetobacter baumannii [2] | Acinetobacter baumannii [3] | Acinetobacter baumannii [4] | Acinetobacter baumannii [5] | Acinetobacter baumannii [6] | Acinetobacter baumannii [7] | Acinetobacter baumannii [8] | Acinetobacter baumannii [9] | Acinetobacter baumannii [10] | Acinetobacter baumannii [11] | Acinetobacter baumannii [12] | Acinetobacter baumannii [13]

CO/N=C(\C(=O)N[C@@H]1C(=O)N2C(C(=O)O)=C(COC(C)=O)CS[C@H]12)c1csc(N)n1
inactive: Acinetobacter baumannii [1] | Acinetobacter baumannii [2] | Acinetobacter baumannii [3] | Acinetobacter baumannii [4] | Acinetobacter baumannii [5] | Acinetobacter baumannii [6] | Acinetobacter baumannii [7] | Acinetobacter baumannii [8] | Acinetobacter baumannii [9] | Acinetobacter baumannii [10] | Acinetobacter baumannii [11] | Acinetobacter baumannii [12] | Acinetobacter baumannii [13]

CO/N=C(\C(=O)N[C@@H]1C(=O)N2C(C(=O)[O-])=C(C[N+]3(C)CCCC3)CS[C@H]12)c1csc(N)n1
inactive: Acinetobacter baumannii [1] | Acinetobacter baumannii [2] | Acinetobacter baumannii [3] | Acinetobacter baumannii [4] | Acinetobacter baumannii [5] | Acinetobacter baumannii [6] | Acinetobacter baumannii [7] | Acinetobacter baumannii [8] | Acinetobacter baumannii [9] | Acinetobacter baumannii [10] | Acinetobacter baumannii [11] | Acinetobacter baumannii [12] | Acinetobacter baumannii [13]

CO[C@@]1(NC(=O)Cc2cccs2)C(=O)N2C(C(=O)O)=C(COC(N)=O)CS[C@@H]21
inactive: Acinetobacter baumannii [1] | Acinetobacter baumannii [2] | Acinetobacter baumannii [3] | Acinetobacter baumannii [4] | Acinetobacter baumannii [5] | Acinetobacter baumannii [6] | Acinetobacter baumannii [7] | Acinetobacter baumannii [8] | Acinetobacter baumannii [9] | Acinetobacter baumannii [10] | Acinetobacter baumannii [11] | Acinetobacter baumannii [12] | Acinetobacter baumannii [13]

COc1c(N2C[C@@H]3CCCN[C@@H]3C2)c(F)cc2c(=O)c(C(=O)O)cn(C3CC3)c12
inactive: Acinetobacter baumannii [1] | Acinetobacter baumannii [2] | Acinetobacter baumannii [3] | Acinetobacter baumannii [4] | Acinetobacter baumannii [5] | Acinetobacter baumannii [6] | Acinetobacter baumannii [7] | Acinetobacter baumannii [8] | Acinetobacter baumannii [9] | Acinetobacter baumannii [10] | Acinetobacter baumannii [11] | Acinetobacter baumannii [12] | Acinetobacter baumannii [13]

C[C@@H]1O[C@@H]1P(=O)(O)O
inactive: Acinetobacter baumannii [1] | Acinetobacter baumannii [2] | Acinetobacter baumannii [3] | Acinetobacter baumannii [4] | Acinetobacter baumannii [5] | Acinetobacter baumannii [6] | Acinetobacter baumannii [7] | Acinetobacter baumannii [8] | Acinetobacter baumannii [9] | Acinetobacter baumannii [10] | Acinetobacter baumannii [11] | Acinetobacter baumannii [12] | Acinetobacter baumannii [13]

O=C(O)c1cn(C2CC2)c2cc(N3CCNCC3)c(F)cc2c1=O
inactive: Acinetobacter baumannii [1] | Acinetobacter baumannii [3] | Acinetobacter baumannii [4] | Acinetobacter baumannii [5] | Acinetobacter baumannii [6] | Acinetobacter baumannii [7] | Acinetobacter baumannii [8] | Acinetobacter baumannii [9] | Acinetobacter baumannii [10] | Acinetobacter baumannii [11] | Acinetobacter baumannii [12] | Acinetobacter baumannii [13]

NCC[C@H](O)C(=O)N[C@@H]1C[C@H](N)[C@@H](O[C@H]2O[C@H](CN)[C@@H](O)[C@H](O)[C@H]2O)[C@H](O)[C@H]1O[C@H]1O[C@H](CO)[C@@H](O)[C@H](N)[C@H]1O [AMIKACIN]
≤ 2 µg/mL: Acinetobacter baumannii [1] | Acinetobacter baumannii [7]
≥ 64 µg/mL: Acinetobacter baumannii [2] | Acinetobacter baumannii [3] | Acinetobacter baumannii [4] | Acinetobacter baumannii [5] | Acinetobacter baumannii [6] | Acinetobacter baumannii [8] | Acinetobacter baumannii [9] | Acinetobacter baumannii [10] | Acinetobacter baumannii [12] | Acinetobacter baumannii [13]
32 µg/mL: Acinetobacter baumannii [11]

C[C@H]1COc2c(N3CCN(C)CC3)c(F)cc3c(=O)c(C(=O)O)cn1c23.C[C@H]1COc2c(N3CCN(C)CC3)c(F)cc3c(=O)c(C(=O)O)cn1c23.O [LEVOFLOXACIN]
16 µg/mL: Acinetobacter baumannii [25]
≥ 64 µg/mL: Acinetobacter baumannii [16] | Acinetobacter baumannii [17] | Acinetobacter baumannii [19] | Acinetobacter baumannii [20] | Acinetobacter baumannii [21] | Acinetobacter baumannii [22] | Acinetobacter baumannii [23]
8 µg/mL: Acinetobacter baumannii [14] | Acinetobacter baumannii [15] | Acinetobacter baumannii [18] | Acinetobacter baumannii [24] | Acinetobacter baumannii [26]

CN(C)c1cc(NC(=O)CNC(C)(C)C)c(O)c2c1C[C@H]1C[C@H]3[C@H](N(C)C)C(O)=C(C(N)=O)C(=O)[C@@]3(O)C(O)=C1C2=O [TIGECYCLINE]
16 µg/mL: Acinetobacter baumannii [16] | Acinetobacter baumannii [17] | Acinetobacter baumannii [19] | Acinetobacter baumannii [20] | Acinetobacter baumannii [21] | Acinetobacter baumannii [22] | Acinetobacter baumannii [23]
4 µg/mL: Acinetobacter baumannii [14] | Acinetobacter baumannii [15] | Acinetobacter baumannii [18] | Acinetobacter baumannii [24] | Acinetobacter baumannii [25] | Acinetobacter baumannii [26]
≥ 8 µg/mL: Acinetobacter baumannii [3] | Acinetobacter baumannii [5] | Acinetobacter baumannii [6] | Acinetobacter baumannii [9] | Acinetobacter baumannii [10] | Acinetobacter baumannii [12] | Acinetobacter baumannii [13]
2 µg/mL: Acinetobacter baumannii [1] | Acinetobacter baumannii [2] | Acinetobacter baumannii [4] | Acinetobacter baumannii [7] | Acinetobacter baumannii [8] | Acinetobacter baumannii [11]

NC[C@H]1O[C@H](O[C@H]2[C@H](O)[C@@H](O[C@H]3O[C@H](CO)[C@@H](O)[C@H](N)[C@H]3O)[C@H](N)C[C@@H]2N)[C@H](N)C[C@@H]1O [TOBRAMYCIN]
16 µg/mL: Acinetobacter baumannii [16] | Acinetobacter baumannii [19]
8 µg/mL: Acinetobacter baumannii [5] | Acinetobacter baumannii [13]
4 µg/mL: Acinetobacter baumannii [17] | Acinetobacter baumannii [20] | Acinetobacter baumannii [21] | Acinetobacter baumannii [22] | Acinetobacter baumannii [23] | Acinetobacter baumannii [26]
2 µg/mL: Acinetobacter baumannii [14] | Acinetobacter baumannii [15] | Acinetobacter baumannii [18] | Acinetobacter baumannii [24] | Acinetobacter baumannii [25]
≤ 1 µg/mL: Acinetobacter baumannii [1] | Acinetobacter baumannii [2] | Acinetobacter baumannii [3] | Acinetobacter baumannii [4] | Acinetobacter baumannii [6] | Acinetobacter baumannii [7] | Acinetobacter baumannii [8] | Acinetobacter baumannii [9] | Acinetobacter baumannii [10] | Acinetobacter baumannii [11] | Acinetobacter baumannii [12]

COLISTIN
< 1 µg/mL: Acinetobacter baumannii [1] | Acinetobacter baumannii [2] | Acinetobacter baumannii [3] | Acinetobacter baumannii [4] | Acinetobacter baumannii [5] | Acinetobacter baumannii [6] | Acinetobacter baumannii [7] | Acinetobacter baumannii [8] | Acinetobacter baumannii [9] | Acinetobacter baumannii [10] | Acinetobacter baumannii [11] | Acinetobacter baumannii [12] | Acinetobacter baumannii [13]

GENTAMICIN
inactive: Acinetobacter baumannii [1] | Acinetobacter baumannii [2] | Acinetobacter baumannii [3] | Acinetobacter baumannii [4] | Acinetobacter baumannii [5] | Acinetobacter baumannii [6] | Acinetobacter baumannii [7] | Acinetobacter baumannii [8] | Acinetobacter baumannii [9] | Acinetobacter baumannii [10] | Acinetobacter baumannii [11] | Acinetobacter baumannii [12] | Acinetobacter baumannii [13]
